The values that follow come from patent US7998952B2, “Thiolactams and uses thereof” (Millennium Pharmaceuticals, Inc., priority 2008, dated 2011).

Where only a bound is given, the exact number is not on record here.

T1 sequence (P53350 2-369 T210D): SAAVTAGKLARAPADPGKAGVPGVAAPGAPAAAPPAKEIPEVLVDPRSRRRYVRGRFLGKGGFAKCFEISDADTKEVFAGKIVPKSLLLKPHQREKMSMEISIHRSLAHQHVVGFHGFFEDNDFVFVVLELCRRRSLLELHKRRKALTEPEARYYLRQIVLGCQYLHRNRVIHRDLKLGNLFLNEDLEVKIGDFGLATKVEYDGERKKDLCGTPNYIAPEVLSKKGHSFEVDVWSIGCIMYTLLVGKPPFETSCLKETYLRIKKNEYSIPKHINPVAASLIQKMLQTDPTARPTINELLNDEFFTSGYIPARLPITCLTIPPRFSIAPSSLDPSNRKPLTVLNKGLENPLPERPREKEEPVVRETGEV

This assay concerns the target T1, recombinant human PLK1[2-369]T210D (Homo sapiens, UniProt P53350, T210D).
T1 construct: recombinant human PLK1[2-369]T210D; Smt (SUMO) fusion partner (N, cleaved yes); host or cells: E. coli
Nature of the assay: PLK1 DELFIA Kinase Assay. It counts as biochemical. The note with it: 50 μM ATP, 2 μM peptide substrate, 0.3 nM enzyme, 90 minutes at room temperature. In outline: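 E. coli-expressed human PLK1, cleaved from an Smt fusion after Ni2+ purification, is reacted with or without inhibitor for 90 minutes at room temperature and stopped with EDTA. Product is captured on Neutravidin plates and quantified by europium DELFIA time-resolved fluorescence.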
Take `Cc1nc(NC(=O)CN(C)C)ccc1Nc1ncc2c(n1)-c1ccc(C(F)(F)F)cc1NC(=S)C2` [Compound I-121, 2-(dimethylamino)-N-(6-methyl-5-{[6-thioxo-9-(trifluoromethyl)-6,7-dihydro-5H-pyrimido[5,4-d][1]benzazepin-2-yl]amino}pyridin-2-yl)acetamide]: the IC50 lay within 5 to 25 nM. Next, `Cc1nc(N2CCCC2)ccc1Nc1ncc2c(n1)-c1ccc(Cl)cc1NC(=S)C2` [Compound I-106, 9-chloro-2-[(2-methyl-6-pyrrolidin-1-ylpyridin-3-yl)amino]-5,7-dihydro-6H-pyrimido[5,4-d][1]benzazepine-6-thione]: under 5 nM; `Cc1nc(N(C)CCN(C)C)ccc1Nc1ncc2c(n1)-c1ccc(Cl)cc1NC(=S)C2` [Compound I-112, 9-chloro-2-({6-[[2-(dimethylamino)ethyl](methyl)amino]-2-methylpyridin-3-yl}amino)-5,7-dihydro-6H-pyrimido[5,4-d][1]benzazepine-6-thione]: 5 to 25 nM. Next, `Cc1ncc(CCN(C)C)cc1Nc1ncc2c(n1)-c1ccc(Cl)cc1NC(=S)C2` [Compound I-99, 9-chloro-2-({5-[2-(dimethylamino)-ethyl]-2-methylpyridin-3-yl}amino)-5,7-dihydro-6H-pyrimido[5,4-d][1]benzazepine-6-thione]: under 5 nM.

Consider `CN(C)CCCc1cncc(Nc2ncc3c(n2)-c2ccc(C(F)(F)F)cc2NC(=S)C3)c1` [Compound I-32, 2-({5-[3-(dimethylamino)propyl]pyridin-3-yl}amino)-9-(trifluoromethyl)-5,7-dihydro-6H-pyrimido[5,4-d][1]benzazepine-6-thione], for which the half-maximal inhibitory concentration (IC50) was under 5 nM. Consider `Cc1ncc(CCN2CCOCC2)cc1Nc1ncc2c(n1)-c1ccc(C(F)(F)F)cc1NC(=S)C2` [Compound I-43, 2-{[2-methyl-5-(2-morpholin-4-ylethyl)pyridin-3-yl]amino}-9-(trifluoromethyl)-5,7-dihydro-6H-pyrimido[5,4-d][1]benzazepine-6-thione], for which the IC50 was under 5 nM. Turning to `Cc1nc(NC2CCN(C)CC2)ccc1Nc1ncc2c(n1)-c1ccc(Cl)cc1NC(=S)C2` [Compound I-22, 9-chloro-2-({2-methyl-6-[(1-methylpiperidin-4-yl)amino]pyridin-3-yl}amino)-5,7-dihydro-6H-pyrimido[5,4-d][1]benzazepine-6-thione], the IC50 was under 5 nM.

As for `CCc1ncc(CCCN(C)C)cc1Nc1ncc2c(n1)-c1ccc(Cl)cc1NC(=S)C2` [Compound I-38, 9-chloro-2-({5-[3-(dimethylamino)propyl]-2-ethylpyridin-3-yl}amino)-5,7-dihydro-6H-pyrimido[5,4-d][1]benzazepine-6-thione], the concentration for half-maximal inhibition (IC50) is under 5 nM. The figure for `Cc1nc(NC2CCOCC2)ccc1Nc1ncc2c(n1)-c1ccc(C(F)(F)F)cc1NC(=S)C2` [Compound I-18, 2-{[2-methyl-6-(tetrahydro-2H-pyran-4-ylamino)pyridin-3-yl]amino}-9-(trifluoromethyl)-5,7-dihydro-6H-pyrimido[5,4-d][1]benzazepine-6-thione] is under 5 nM. Take `Cc1nc2c(cc1Nc1ncc3c(n1)-c1ccc(Cl)cc1NC(=S)C3)CC(N(C)C)CC2` (stereo not drawn) [Compound I-96, 9-chloro-2-{[6-(dimethylamino)-2-methyl-5,6,7,8-tetrahydroquinolin-3-yl]amino}-5,7-dihydro-6H-pyrimido[5,4-d][1]benzazepine-6-thione]: the 50% inhibitory concentration (IC50) was under 5 nM. Next, `Cc1ncc(CCCN(C)C)cc1Nc1ncc2c(n1)-c1cc(CCCN(C)C)c(Cl)cc1NC(=S)C2` [Compound I-120, 9-chloro-10-[3-(dimethylamino)propyl]-2-({5-[3-(dimethylamino)propyl]-2-methylpyridin-3-yl}amino)-5,7-dihydro-6H-pyrimido[5,4-d][1]benzazepine-6-thione]: over 25 nM. The figure for `Cc1nc(NCCCN(C)C)ccc1Nc1ncc2c(n1)-c1ccc(C(F)(F)F)cc1NC(=S)C2` [Compound I-23, 2-[(6-{[3-(dimethylamino)propyl]amino}-2-methylpyridin-3-yl)amino]-9-(trifluoromethyl)-5,7-dihydro-6H-pyrimido[5,4-d][1]benzazepine-6-thione] is under 5 nM; for `Cc1nc(N2CCOCC2)ccc1Nc1ncc2c(n1)-c1ccc(Cl)cc1NC(=S)C2` [Compound I-109, 9-chloro-2-[(2-methyl-6-morpholin-4-ylpyridin-3-yl)amino]-5,7-dihydro-6H-pyrimido[5,4-d][1]benzazepine-6-thione] it is under 5 nM. The figure for `Cc1nc(OC2CCN(C)CC2)ccc1Nc1ncc2c(n1)-c1ccc(C(F)(F)F)cc1NC(=S)C2` [Compound I-77, 2-({2-methyl-6-[(1-methylpiperidin-4-yl)oxy]pyridin-3-yl}amino)-9-(trifluoromethyl)-5,7-dihydro-6H-pyrimido[5,4-d][1]benzazepine-6-thione] is under 5 nM; for `CN1CCN(c2ccc(Nc3ncc4c(n3)-c3ccc(Cl)cc3NC(=S)C4)cn2)CC1` [Compound I-28, 9-chloro-2-{[6-(4-methylpiperazin-1-yl)pyridin-3-yl]amino}-5,7-dihydro-6H-pyrimido[5,4-d][1]benzazepine-6-thione] it is under 5 nM; for `Cc1nc(C(=O)NCCN2CCOCC2)ccc1Nc1ncc2c(n1)-c1ccc(C(F)(F)F)cc1NC(=S)C2` [Compound I-21] it is under 5 nM. As to `CCN1CCN(c2cncc(Nc3ncc4c(n3)-c3ccc(Cl)cc3NC(=S)C4)c2)C[C@H]1C` [Compound I-58, 9-chloro-2-({5-[(3R)-4-ethyl-3-methylpiperazin-1-yl]pyridin-3-yl}amino)-5,7-dihydro-6H-pyrimido[5,4-d][1]benzazepine-6-thione], the concentration for half-maximal inhibition (IC50) was under 5 nM. Next, `Cc1nc(NCCN(C)C)ccc1Nc1ncc2c(n1)-c1ccc(C(F)(F)F)cc1NC(=S)C2` [Compound I-64, 2-[(6-{[2-(dimethylamino)ethyl]amino}-2-methylpyridin-3-yl)amino]-9-(trifluoromethyl)-5,7-dihydro-6H-pyrimido[5,4-d][1]benzazepine-6-thione]: under 5 nM.

As to `CCN1[C@H](C)CN(c2cnc(C)c(Nc3ncc4c(n3)-c3ccc(Cl)cc3NC(=S)C4)c2)C[C@@H]1C` [Compound I-49, 9-chloro-2-({5-[(3R,5S)-4-ethyl-3,5-dimethylpiperazin-1-yl]-2-methylpyridin-3-yl}amino)-5,7-dihydro-6H-pyrimido[5,4-d][1]benzazepine-6-thione], the IC50 is under 5 nM. The figure for `CN(C)CCCc1cnc(C(F)(F)F)c(Nc2ncc3c(n2)-c2ccc(C(F)(F)F)cc2NC(=S)C3)c1` [Compound I-36, 2-{[5-[3-(dimethylamino)propyl]-2-(trifluoromethyl)pyridin-3-yl]amino}-9-(trifluoromethyl)-5,7-dihydro-6H-pyrimido[5,4-d][1]benzazepine-6-thione] is 5 to 25 nM. `Cc1nc(N2CCCCC2)ccc1Nc1ncc2c(n1)-c1ccc(Cl)cc1NC(=S)C2` [Compound I-82, 9-chloro-2-[(2-methyl-6-piperidin-1-ylpyridin-3-yl)amino]-5,7-dihydro-6H-pyrimido[5,4-d][1]benzazepine-6-thione]: the IC50 was in the range of 5 to 25 nM.

As a reminder, the IC50 is the concentration that inhibits the measured activity by half.
